Test [1] can be described thus: P. falciparum ATP4 D1247Y mutant growth inhibitors, dose response, NITD609-resistant line, SYBR Green, dry powder (AID 1159571).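 Also: parasites synchronized at ring stage by sorbitol before testing.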 It counts as functional, cell-based.
A short description of test [2]: P. falciparum Dd2 growth inhibitors, dose response, SYBR Green, dry powder samples (AID 1159566).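 Also: potency for growth inhibition with lower SYBR green DNA signal.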 It counts as functional, cell-based.
A short description of test [3]: P. falciparum Dd2 growth inhibitors, dose response, SYBR Green, cherry-picked samples (AID 1159567). It counts as functional, cell-based.
The nature of test [4]: HepG2 cell cytotoxicity, dose response, cytotoxicity control, plate reader, dry powder samples (AID 1159569).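 Also: inhibitor potency with signal falling toward the positive control level.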 The format is functional, cell-based.
A short description of test [5]: P. falciparum 3D7-ScDHODH growth inhibitors, dose response, SYBR Green, dry powder samples (AID 1159570).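 Also: parasite growth measured after 72 hours of compound exposure.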 The format is functional, cell-based.
Test [6] can be described thus: microbe, parasite or virus in culture. It counts as functional. The conditions noted are these: Mycobacterium tuberculosis.
Test [7] concerns the target DNA dC->dU-editing enzyme APOBEC-3A (Homo sapiens, UniProt P31941). Nature of the test: Dose Response confirmation of small molecule APOBEC3A DNA Deaminase Inhibitors via a fluorescence-based single-stranded DNA deaminase assay. [Related pubchem assays (depositor defined):AID493011, AID493024]. The format is functional.
In test [8] the target is DNA dC->dU-editing enzyme APOBEC-3G (Homo sapiens, UniProt Q9HC16). It counts as functional.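 Also: Dose-response counterscreen measuring inhibition of APOBEC3G DNA deaminase activity, run while confirming APOBEC3A inhibitors.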
Sequence of DNA dC->dU-editing enzyme APOBEC-3G (Q9HC16 whole entry): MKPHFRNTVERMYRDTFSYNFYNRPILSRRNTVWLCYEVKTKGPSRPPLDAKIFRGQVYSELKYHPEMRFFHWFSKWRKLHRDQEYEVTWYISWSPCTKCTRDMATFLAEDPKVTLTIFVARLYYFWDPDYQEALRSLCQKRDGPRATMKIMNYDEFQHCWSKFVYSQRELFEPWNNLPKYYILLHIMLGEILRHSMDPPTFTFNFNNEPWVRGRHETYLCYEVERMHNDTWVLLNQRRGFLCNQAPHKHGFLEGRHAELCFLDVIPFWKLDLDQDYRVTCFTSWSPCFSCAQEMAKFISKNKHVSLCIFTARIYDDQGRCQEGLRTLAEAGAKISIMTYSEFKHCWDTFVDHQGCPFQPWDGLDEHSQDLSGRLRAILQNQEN
A short description of test [9]: cytotoxicity in HEK-293T cells, dose response, cytotoxicity control for BCR NF-kB inhibitor project, luminescence, B-cell screen hits (AID 489021).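 Also: HEK-293T cells carrying an NF-kB luciferase reporter; cells exposed to compound for about 14 hours before viability readout.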 The format is functional, cell-based.
Test [10] addresses T1, Heat shock factor protein 1 (Mus musculus, UniProt P38532).
T1 sequence (P38532 whole entry): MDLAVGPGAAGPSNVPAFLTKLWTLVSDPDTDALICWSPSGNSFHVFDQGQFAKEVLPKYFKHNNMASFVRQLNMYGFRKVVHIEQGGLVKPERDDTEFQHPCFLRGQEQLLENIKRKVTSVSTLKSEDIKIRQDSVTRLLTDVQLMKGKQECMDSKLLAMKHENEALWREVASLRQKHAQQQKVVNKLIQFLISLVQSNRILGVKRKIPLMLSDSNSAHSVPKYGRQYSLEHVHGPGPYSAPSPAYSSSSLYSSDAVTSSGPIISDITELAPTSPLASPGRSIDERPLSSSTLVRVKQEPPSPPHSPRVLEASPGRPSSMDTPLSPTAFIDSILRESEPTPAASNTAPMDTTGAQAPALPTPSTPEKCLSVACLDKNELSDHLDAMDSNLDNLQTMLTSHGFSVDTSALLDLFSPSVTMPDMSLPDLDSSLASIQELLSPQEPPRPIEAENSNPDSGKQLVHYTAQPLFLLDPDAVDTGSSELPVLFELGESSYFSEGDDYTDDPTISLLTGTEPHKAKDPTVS
Nature of the test: inhibition of MG132-induced HSE-luciferase signal, confirmation, cell-based, NIH3T3, luminescence, dose retest (AID 2382).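 Also: NIH3T3 fibroblasts with HSF1-driven luciferase reporter stressed by proteasome inhibitor MG132; luminescence from HSF1-driven luciferase expression after 8 hours of MG132 stress.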 It counts as functional.

A further test addresses T2, Caspase-6 (Homo sapiens, UniProt P55212).
T2 sequence (P55212 whole entry): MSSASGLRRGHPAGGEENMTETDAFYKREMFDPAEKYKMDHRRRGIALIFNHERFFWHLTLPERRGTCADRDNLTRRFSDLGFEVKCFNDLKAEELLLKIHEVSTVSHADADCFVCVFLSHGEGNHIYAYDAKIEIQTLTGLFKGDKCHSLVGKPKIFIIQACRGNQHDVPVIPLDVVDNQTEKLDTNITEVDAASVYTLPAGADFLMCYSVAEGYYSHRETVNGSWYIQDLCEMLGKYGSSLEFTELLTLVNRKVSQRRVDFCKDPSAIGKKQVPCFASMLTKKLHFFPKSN
Nature of the test: human caspase-6 inhibitors, dose response, biochemical, VEID-R110 fluorescence, cherry-pick (AID 720632).

The next test deals with T3, Protein Tat (Human immunodeficiency virus type 1 group M subtype B (isolate HXB2)(HIV-1), UniProt P04608).
T3 sequence (P04608 whole entry): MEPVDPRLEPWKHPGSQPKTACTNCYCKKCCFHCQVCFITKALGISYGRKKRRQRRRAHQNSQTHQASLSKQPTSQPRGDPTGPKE
The format is functional.

A short description of the next test: cells. The format is functional.
A short description of test [11]: THP-1 cell cytotoxicity, dose response, cytotoxicity control for non-replicating M. tuberculosis project (AID 489025). The format is functional.
A short description of test [12]: HepG2 cell cytotoxicity, dose response, cytotoxicity control for non-replicating M. tuberculosis project (AID 489018). It counts as functional. Conditions: Mycobacterium tuberculosis.
Test [13] is described as follows: THP-1 cell cytotoxicity, dose response, cytotoxicity control for Vif-APOBEC3G degradation inhibitor project, THP-1 cells (AID 1117359). It counts as functional. The conditions noted are these: Human immunodeficiency virus 1, THP-1.

Activity calls are given as the source filed them. Some results are limits rather than exact numbers.

Sequence of DNA dC->dU-editing enzyme APOBEC-3A (P31941 whole entry): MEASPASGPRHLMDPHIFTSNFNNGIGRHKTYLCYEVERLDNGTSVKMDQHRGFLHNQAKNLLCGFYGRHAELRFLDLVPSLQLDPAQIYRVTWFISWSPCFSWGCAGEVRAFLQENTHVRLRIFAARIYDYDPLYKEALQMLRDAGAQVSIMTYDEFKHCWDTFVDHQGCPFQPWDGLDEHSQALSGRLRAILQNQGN

Take `O=C(Nc1ccccc1F)N1CCCCN2[C@@H](CO)[C@@H](c3ccc(C#Cc4cccnc4)cc3)[C@@H]2C1`: the AC50 is 1.35 µM (active) in test [1]; 0.95 µM (active) in [2]; 1.33 µM (active) in test [3]; 42.6 µM (active) in test [4]; 1.95 µM (active) in [5].
For `N#C[C@@H]1[C@H](c2ccc(C3=CCCCC3)cc2)[C@H](CO)N1C(=O)NC1CCCC1`, in that order: 1.41 µM (active), 0.923 µM (active), 1.96 µM (active), 0.338 µM (active) and 5.81 µM (active).
Turning to `CC(C)CCC[C@@H](C)[C@H]1CC[C@H]2[C@@H]3C(=O)C=C4C[C@@H](O)CC[C@]4(C)[C@H]3CC[C@]12C` [7-OXOCHOLESTEROL], the CC50 in test [6] is > 40 µM (active).
On to `C[N+]1(CC(=O)OCCCc2ccccc2)CCCCC1`, for which the values for the IC50 in test [7] and in test [8] were 2.1 µM (active) and 2.42 µM (active), respectively.
For `Cc1ccc(-c2cc(C(=O)NCCCN3CCOCC3)no2)cc1`, the IC50 in [9] was > 80 µM (inactive). In [10], the EC50 is 19.1 µM (active).
Take `CC(=O)Nc1ccc2c(COC(=O)CC3Sc4ccccc4NC3=O)cc(=O)oc2c1` (centres undefined): the results for the IC50 in test [7] and in test [8] were 19.3 µM (active) and 30.7 µM (active), respectively.
On the same counts, the results for `CCN(CC)C(=O)Cn1c(C)c(/C=C/c2cc[n+](C)cc2)c2ccccc21` are 2.08 µM (active) and 4.08 µM (active).
Consider `CCC(=O)N1CCC2(CC1)CN(Cc1cccc(OC)c1)[C@@H](CO)c1[nH]c3cc(OC)ccc3c12`, for which the AC50 is 1.92 µM (active) in [1]; 2.21 µM (active) in test [2]; 2.63 µM (active) in test [3]; 97.6 µM (active) in test [4]; 2.56 µM (active) in [5].
In the case of `Cc1cc(C)cc(OCC(=O)N2N=C(C(F)(F)F)CC2(O)C(C)(C)C)c1` (centres undefined), the half-inhibitory concentration (IC50) in test [7] was 4.6 µM (active); in test [8] it was 5.91 µM (active).
As to `O=C(COC(=O)c1ccc([N+](=O)[O-])o1)NCCc1ccccc1`, the AC50 on Caspase-6 was 42.2 µM (active).
The same measure, in the same setting: the value for `CC(NC(=O)CN1c2cccc3cccc(c23)S1(=O)=O)c1ccc(S(N)(=O)=O)cc1` (centres undefined) was 22.4 µM (active).
In the case of `Fc1ccc(C2=Nn3c(nnc3-c3[nH]nc4c3CCC4)SC2)cc1`, in test [9], the IC50 is > 80 µM (inactive).
For `CC[n+]1c(C)n(Cc2ccccc2)c2ccc(Cl)cc21`, the figures for the IC50 in [7] and in test [8] were 1.39 µM (active) and 2.27 µM (active), respectively.
For `CCN(C(=O)CN1C(=O)NC(c2ccccc2)(c2ccc(C)c(C)c2)C1=O)C1CCCCC1` (centres undefined), the IC50 in test [9] is > 80 µM (inactive).
For the compound `CCOC(=O)c1nn(-c2ccc(Cl)cc2Cl)c(=N)c(C#N)c1C`, the IC50 on Protein Tat was > 100 µM (active).
`COc1ccc(C(CCNCc2ccc(OC(C)C)cc2)C(C)C)cc1` (centres undefined): the IC50 in “cells” is 23 µM (active). In addition, the CC50 in test [11] is 13.7 µM (active); in test [6] it was 23.1 µM (active); in [12], 13.6 µM (active).
For the compound `CCC(c1nnnn1Cc1ccco1)N(Cc1ccccc1OC)Cc1cc2cc(C)ccc2nc1O` (centres undefined), the CC50 in test [13] is > 40 µM (active). Also, the IC50 at Protein Tat was > 100 µM (inconclusive).
For the compound `C[C@H]1CN([C@@H](C)CO)C(=O)c2cc(NC(=O)Nc3cccc4ccccc34)ccc2O[C@H]1CN(C)C(=O)Nc1ccc(C(F)(F)F)cc1`, the AC50 in [1] was 3.76 µM (active); in test [2], 1.5 µM (active); in [3] it was 2.37 µM (active); in test [4] it was > 100 µM (inactive); in test [5] it was 1.86 µM (active).

Values taken from ChEMBL document CHEMBL1201862, “PubChem BioAssay data set” (2004).
